For 16 compounds, T/C results are on record in PubChem BioAssay AID248 (DTP/NCI, 2004).

The subject of this experiment is L1210 leukemia ip in BDF1 mice, survival T/C. Description: NCI In Vivo Anticancer Drug Screen. Data for tumor model L1210 Leukemia (intraperitoneal) in B6D2F1 (BDF1) mice. The conditions noted are these: endpoint: mean survival time, higher = longer survival. In a few lines:
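Read-out is survival time, reported as the treated-group measurement over the vehicle-control measurement.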

The mark [1] stands for this setting: dose: 100.0 mg/kg/injection, schedule: Q01DX001 (ip), vehicle: carboxymethylcellulose (CMC).
[2] abbreviates: dose: 200.0 mg/kg/injection, schedule: Q01DX001 (ip), vehicle: carboxymethylcellulose (CMC).
Setting [3] is: dose: 100.0 mg/kg/injection, schedule: Q04DX003 (ip), vehicle: saline with Tween-80.
[4] abbreviates: dose: 200.0 mg/kg/injection, schedule: Q04DX003 (ip), vehicle: saline with Tween-80.
[5] abbreviates: dose: 100.0 mg/kg/injection, schedule: Q04DX002 (ip), vehicle: Klucel (hydroxypropylcellulose) (HPC).
[6] abbreviates: dose: 200.0 mg/kg/injection, schedule: Q04DX002 (ip), vehicle: Klucel (hydroxypropylcellulose) (HPC).
The mark [7] stands for this setting: dose: 400.0 mg/kg/injection, schedule: Q04DX002 (ip), vehicle: Klucel (hydroxypropylcellulose) (HPC).
Where [8] appears, read: dose: 100.0 mg/kg/injection, schedule: Q01DX009 (ip), vehicle: Klucel (hydroxypropylcellulose) (HPC).
[9] abbreviates: dose: 100.0 mg/kg/injection, schedule: Q04DX003 (ip), vehicle: Klucel (hydroxypropylcellulose) (HPC).
Setting [10] is: dose: 200.0 mg/kg/injection, schedule: Q01DX009 (ip), vehicle: Klucel (hydroxypropylcellulose) (HPC).
[11] abbreviates: dose: 200.0 mg/kg/injection, schedule: Q04DX003 (ip), vehicle: Klucel (hydroxypropylcellulose) (HPC).
Setting [12] is: dose: 400.0 mg/kg/injection, schedule: Q01DX009 (ip), vehicle: Klucel (hydroxypropylcellulose) (HPC).
The mark [13] stands for this setting: dose: 400.0 mg/kg/injection, schedule: Q04DX003 (ip), vehicle: Klucel (hydroxypropylcellulose) (HPC).
[14] abbreviates: dose: 50.0 mg/kg/injection, schedule: Q01DX001 (ip), vehicle: saline.
The mark [15] stands for this setting: dose: 100.0 mg/kg/injection, schedule: Q01DX001 (ip), vehicle: saline.
Setting [16] is: dose: 200.0 mg/kg/injection, schedule: Q01DX001 (ip), vehicle: saline.
Where [17] appears, read: dose: 400.0 mg/kg/injection, schedule: Q01DX001 (ip), vehicle: saline.
Where [18] appears, read: dose: 50.0 mg/kg/injection, schedule: Q04DX003 (ip), vehicle: saline.
Setting [19] is: dose: 100.0 mg/kg/injection, schedule: Q04DX003 (ip), vehicle: saline.

Values joined by “and” are separate entries in the source; they are usually repeats but may differ in a detail not shown here. Identical values can stand only once. Toxic doses and inconclusive results are not listed.

In the case of `O=NN(CCCl)C(=O)Nc1ccc2c(c1)OCO2`, the T/C by setting is: (dose: 4.0 mg/kg/injection, schedule: Q01DX009 (ip), vehicle: other) 155 % of control; (dose: 6.0 mg/kg/injection, schedule: Q01DX009 (ip), vehicle: other) 163 % of control; (dose: 9.0 mg/kg/injection, schedule: Q01DX009 (ip), vehicle: other) 170 % of control; (dose: 13.0 mg/kg/injection, schedule: Q01DX009 (ip), vehicle: other) 173 % of control; (dose: 20.0 mg/kg/injection, schedule: Q01DX001 (ip), vehicle: other) 180 % of control; (dose: 20.0 mg/kg/injection, schedule: Q01DX009 (ip), vehicle: other) 164 % of control. Also, the T/C was 157 % of control (dose: 22.0 mg/kg/injection, schedule: Q01DX009 (ip), vehicle: carboxymethylcellulose (CMC)); 170 % of control (dose: 30.0 mg/kg/injection, schedule: Q01DX001 (ip), vehicle: other); 166 % of control and 185 % of control (dose: 30.0 mg/kg/injection, schedule: Q01DX009 (ip), vehicle: other); 104 % of control (dose: 44.0 mg/kg/injection, schedule: Q01DX009 (ip), vehicle: other); 226 % of control (dose: 66.0 mg/kg/injection, schedule: Q01DX001 (ip), vehicle: other); 151 % of control (dose: 88.0 mg/kg/injection, schedule: Q01DX001 (ip), vehicle: saline). Moreover, the T/C is, setting by setting: under setting [1], 151 % of control; under setting [2], 160 % of control.

`CCOC(=O)c1[nH]c2ccccc2c1CN(CC)CC`: the T/C (dose: 75.0 mg/kg/injection, schedule: Q01DX001 (ip), vehicle: carboxymethylcellulose (CMC)) is 94 % of control.

In the case of `O=C1CC(=O)N(c2ccccc2)O1`, the T/C is, setting by setting: under setting [3], 92 % of control; under setting [4], 112 % of control; (dose: 400.0 mg/kg/injection, schedule: Q04DX003 (ip), vehicle: saline with Tween-80) 91 % of control.

On to `N#C/C(=C\c1ccco1)C1CCC([N+](=O)[O-])CC1` (stereo not drawn), for which the T/C under setting [5] is 104 % of control, the T/C under setting [6] is 104 % of control and the T/C under setting [7] is 93 % of control.

Regarding `COc1ccc(NC(=O)CSc2cc(Cl)ccc2Cl)cc1`, the T/C by setting is: under setting [1], 102 % of control; under setting [2], 96 % of control; (dose: 400.0 mg/kg/injection, schedule: Q01DX001 (ip), vehicle: carboxymethylcellulose (CMC)) 90 % of control.

Consider `CCCCCCC(=O)CC(C)C`, for which the T/C runs as follows: under setting [8], 101 % of control; under setting [9], 97 % of control; under setting [10], 103 % of control; under setting [11], 102 % of control; under setting [12], 109 % of control; under setting [13], 107 % of control.

Turning to `Cc1c(Cl)ccc2c1S(=O)(=O)c1cccc(Cl)c1-2`, the T/C by setting is: under setting [5], 104 % of control; under setting [6], 96 % of control; under setting [7], 100 % of control.

As to `N#CCC(O)(c1ccccc1)c1ccccc1`, the T/C runs as follows: under setting [14], 102 % of control; under setting [15], 98 % of control; under setting [16], 98 % of control; under setting [17], 104 % of control.

On to `COCCN=C(NCCOC)c1ccc(Nc2ncnc3nc[nH]c23)cc1`, for which the T/C is, setting by setting: under setting [18], 102 % of control; under setting [19], 95 % of control.

For `COc1cc(NS(C)(=O)=O)ccc1Nc1c2ccc(Cl)cc2nc2c(OC)cccc12`, the T/C runs as follows: (dose: 6.25 mg/kg/injection, schedule: Q01DX009 (ip), vehicle: water) 155 % of control; (dose: 12.5 mg/kg/injection, schedule: Q01DX009 (ip), vehicle: water) 98 % of control; (dose: 13.0 mg/kg/injection, schedule: Q04DX003 (ip), vehicle: saline with Tween-80) 155 % of control; (dose: 20.0 mg/kg/injection, schedule: Q04DX003 (ip), vehicle: saline with Tween-80) 247 % of control; (dose: 29.0 mg/kg/injection, schedule: Q04DX003 (ip), vehicle: saline with Tween-80) 253 % of control; (dose: 30.0 mg/kg/injection, schedule: Q04DX003 (ip), vehicle: saline with Tween-80) 296 % of control. Moreover, the T/C (dose: 44.0 mg/kg/injection, schedule: Q04DX003 (ip), vehicle: saline with Tween-80) was 260 % of control; the T/C (dose: 66.0 mg/kg/injection, schedule: Q04DX003 (ip), vehicle: saline with Tween-80) is 153 % of control; the T/C under setting [3] was 89 % of control.

With `Cc1ccc(S(=O)(=O)Oc2ccc(C(C)(C)c3ccc(OS(=O)(=O)c4ccc(C)cc4)cc3)cc2)cc1`, the T/C under setting [14] was 98 % of control; the T/C under setting [15] is 93 % of control; the T/C under setting [8] was 96 % of control; the T/C under setting [9] was 93 % of control; the T/C under setting [16] is 93 % of control; the T/C under setting [10] was 91 % of control. The T/C runs as follows: under setting [11], 95 % of control; under setting [17], 90 % of control; under setting [12], 91 % of control; under setting [13], 98 % of control.

On to `CCC(Cl)COP(=O)(OC(c1ccc(Cl)c(Cl)c1)P(=O)(OCC(Cl)CC)OCC(Cl)CC)C(CC)CCl` (stereo not drawn), for which the T/C reads like this: (dose: 100.0 mg/kg/injection, schedule: Q01DX001 (ip), vehicle: saline with Tween-80) 104 % of control; (dose: 200.0 mg/kg/injection, schedule: Q01DX001 (ip), vehicle: saline with Tween-80) 95 % of control; (dose: 400.0 mg/kg/injection, schedule: Q01DX001 (ip), vehicle: saline with Tween-80) 101 % of control.

For the compound `Cc1cc(C)c(NC(=O)Nc2cccc(Cl)c2)c(C)c1`, the T/C under setting [8] is 100 % of control; the T/C under setting [9] is 101 % of control; the T/C under setting [10] is 105 % of control; the T/C under setting [11] was 94 % of control; the T/C under setting [13] was 89 % of control.

As for `COC(=O)c1ccc[n+](CC(=O)c2ccccc2)c1`, the T/C was 95 % of control under setting [3] and 88 % of control under setting [4].

For `O=C(O)c1ccccc1Oc1ccccc1C(=O)O`, the T/C is, setting by setting: under setting [19], 102 % of control; (dose: 200.0 mg/kg/injection, schedule: Q04DX003 (ip), vehicle: saline) 100 % of control; (dose: 400.0 mg/kg/injection, schedule: Q04DX003 (ip), vehicle: saline) 91 % of control.

Consider `CC(N)CCc1ccccc1` (stereo not drawn), for which the T/C (dose: 10.0 mg/kg/injection, schedule: Q01DX001 (ip), vehicle: saline) is 105 % of control; the T/C (dose: 12.5 mg/kg/injection, schedule: Q01DX009 (ip), vehicle: saline) is 97 % of control; the T/C (dose: 12.5 mg/kg/injection, schedule: Q04DX003 (ip), vehicle: saline) is 102 % of control; the T/C (dose: 20.0 mg/kg/injection, schedule: Q01DX001 (ip), vehicle: saline) was 101 % of control; the T/C (dose: 25.0 mg/kg/injection, schedule: Q01DX009 (ip), vehicle: saline) was 95 % of control; the T/C (dose: 25.0 mg/kg/injection, schedule: Q04DX003 (ip), vehicle: saline) is 112 % of control. For the same compound, the T/C is, setting by setting: (dose: 40.0 mg/kg/injection, schedule: Q01DX001 (ip), vehicle: saline) 95 % of control; (dose: 50.0 mg/kg/injection, schedule: Q01DX009 (ip), vehicle: saline) 97 % of control; (dose: 50.0 mg/kg/injection, schedule: Q04DX003 (ip), vehicle: saline with Tween-80) 90 % of control; under setting [18], 104 % of control; (dose: 80.0 mg/kg/injection, schedule: Q01DX001 (ip), vehicle: saline) 101 % of control; under setting [15], 100 % of control.
